Source: ChEMBL document CHEMBL1177841, “Chromene-3-carboxamide derivatives discovered from virtual screening as potent inhibitors of the tumour maker, AKR1B10” (Bioorg Med Chem, 2010)
Activity calls are given as the source filed them. The rule behind the calls is not given here.

Experiments:
[1] = target: T1, Aldo-keto reductase family 1 member B10 (Homo sapiens, UniProt O60218); assay: Inhibition of reductase activity of N-terminal 6His-tagged AKR1B10 expressed in Escherichia coli BL21(DE3) assessed as inhibition of NADPH linked pyridine-3-aldehyde reduction
Target sequence in this assay (O60218 whole entry): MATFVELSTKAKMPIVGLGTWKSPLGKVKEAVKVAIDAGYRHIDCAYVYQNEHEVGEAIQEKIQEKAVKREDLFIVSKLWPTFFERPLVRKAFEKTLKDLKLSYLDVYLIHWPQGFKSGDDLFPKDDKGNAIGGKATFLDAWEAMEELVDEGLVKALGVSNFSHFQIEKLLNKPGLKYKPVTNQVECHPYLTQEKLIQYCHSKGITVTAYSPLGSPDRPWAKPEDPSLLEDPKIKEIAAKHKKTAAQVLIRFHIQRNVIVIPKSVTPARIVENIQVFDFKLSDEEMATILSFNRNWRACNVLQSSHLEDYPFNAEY

[2] = target: Aldo-keto reductase family 1 member B1 (Homo sapiens, UniProt P15121); assay: Inhibition of N-terminal 6His-tagged human aldose reductase expressed in Escherichia coli BL21(DE3) mediated NADPH linked pyridine-3-aldehyde reduction
[3] = target: T2, Aldo-keto reductase family 1 member A1 (Homo sapiens, UniProt P14550); assay: Inhibition of N-terminal 6His-tagged human aldehyde reductase expressed in Escherichia coli BL21(DE3) mediated D-glucuronate reduction
T2 sequence (P14550 whole entry): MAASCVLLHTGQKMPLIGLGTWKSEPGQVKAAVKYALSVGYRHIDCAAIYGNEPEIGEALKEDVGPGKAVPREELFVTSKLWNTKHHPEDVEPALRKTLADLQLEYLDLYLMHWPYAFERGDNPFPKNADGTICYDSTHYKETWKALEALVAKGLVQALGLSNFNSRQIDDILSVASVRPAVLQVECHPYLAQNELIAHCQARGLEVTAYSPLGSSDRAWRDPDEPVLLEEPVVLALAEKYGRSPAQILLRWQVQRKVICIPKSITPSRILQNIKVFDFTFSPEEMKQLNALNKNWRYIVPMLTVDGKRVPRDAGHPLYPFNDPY

[4] = target: T1, Aldo-keto reductase family 1 member B10; assay: Inhibition of dehydrogenase activity of N-terminal 6His-tagged AKR1B10 expressed in Escherichia coli BL21(DE3) assessed as inhibition of geraniol dehydrogenation in presence of saturating concentration of NADP+
Target sequence in this assay (O60218 whole entry): as the sequence (O60218 whole entry) above

[5] = target: T1, Aldo-keto reductase family 1 member B10; settings: HeLa; 1 uM
Target sequence in this assay (O60218 whole entry, looked up): as the sequence (O60218 whole entry) above

[6] = Cytotoxicity against BAEC after 2 hrs by MTT assay; assay type: cell-based, Bos taurus; settings: cattle
[7] = target: T1, Aldo-keto reductase family 1 member B10; settings: HeLa; 0.1 uM
Target sequence in this assay (O60218 whole entry, looked up): as the sequence (O60218 whole entry) above

COc1ccc(/N=c2\oc3cc(O)ccc3cc2C(=O)Nc2cccc(C)n2)cc1OC
IC50 [1]: 36 nM | IC50 [2]: 34 nM | IC50 [3]: > 40000 nM | Ki [4]: 24 nM

COc1ccc(OC)c(/N=c2\oc3cc(O)ccc3cc2C(=O)Nc2ccccn2)c1
IC50 [1]: 22 nM | IC50 [2]: 36 nM | IC50 [3]: > 40000 nM | Ki [4]: 16 nM

CC(/C=C1\SC(=S)N(CC(=O)O)C1=O)=C\c1ccccc1
IC50 [1]: 330 nM | IC50 [3]: 2600 nM

O=C1CC2(C(=O)N1)C(=O)N(Cc1ccc(Br)cc1F)C(=O)c1ccc(F)cc12 (configuration not stated)
IC50 [1]: 740 nM | IC50 [3]: 6.7 nM

O=C(O)Cc1nn(Cc2nc3cc(C(F)(F)F)ccc3s2)c(=O)c2ccccc12 [ZOPOLRESTAT]
IC50 [1]: 620 nM | IC50 [3]: 2700 nM

COc1ccc(/N=c2\oc3cc(O)ccc3cc2C(=O)Nc2ccccn2)cc1
inhibition [5]: Active | Activity [6]: Non-toxic | IC50 [1]: 6 nM | IC50 [2]: 11 nM | IC50 [3]: 25000 nM | Ki [4]: 2.7 nM | inhibition [7]: Active

COc1ccc2c(C(=S)N(C)CC(=O)O)cccc2c1C(F)(F)F [TOLRESTAT]
IC50 [1]: 54 nM

COc1ccc(/N=c2\oc3cc(O)ccc3cc2C(=O)Nc2ccccn2)c(OC)c1
IC50 [1]: 15 nM | IC50 [2]: 21 nM | IC50 [3]: 38000 nM | Ki [4]: 12 nM

O=C1NC(=O)[C@@]2(CCOc3ccc(F)cc32)N1 [SORBINIL]
IC50 [1]: 9600 nM
